This test deals with Pseudomonas aeruginosa (P. aeruginosa). Briefly: Minimum bactericidal concentration (MBC) test: serial dilutions in thickened Letheen Broth, plating and colony count. More on the design: key to MBC observation (contamination grade): −: no bacteria was observed on the plates; +: a trace of contamination was observed (<10 colonies); ++: light contamination was observed (>100 colonies); +++: heavy contamination was observed (continuous smear of growth). Particulars: 24 hours at 37° C. It counts as cell-based. The protocol:
The minimum bactericidal concentration (MBC) values reported herein were determined using Pseudomonas aeruginosa (P. aeruginosa), which is a gram-negative pathogen that can cause severe acute and chronic infections. The MBC is the lowest biocide or biocide combination concentration that kills 100% of the tested bacteria. The cultures of P. aeruginosa were grown for 24 hours in Letheen Broth before treatment with each biocide (e.g., copper-containing glass particles or organic co-biocide) or biocide combination (e.g., copper-containing glass particles and an organic co-biocide). A stock copper-containing glass particle dispersion containing 10 wt % copper-containing glass particles and 1.5% hydoxyethylcellulose (HEC) thickener (Natrosol™ Plus 330 PA) was prepared for serial dilution in thickened Letheen Broth (Letheen Broth containing 1.5 wt % HEC thickener) to achieve the desired test concentrations. A stock organic co-biocide or biocide combination dispersion was prepared by combining 5 grams of a 1 wt % dispersion of each organic co-biocide or biocide combination in 1 wt % HEC thickener for serial dilution to achieve the desired test concentrations. 1000 μL of the dispersion of interest was added to a microcentrifuge tube (referred to as “tube 1”). Serial dilution continued with the dilution of 500 μL of the dispersion from tube 1 with 500 μL of thickened Letheen Broth (“tube 2”). Serial dilutions were continued in this manner […] (tube 3 to tube 10). Tube 11 contained 500 μL of thickened Letheen Broth as a “broth blank.” 50 μL of P. aeruginosa was transferred directly from culture into each of tubes 1-11 and the tubes were incubated at 37° C. for 24 hours. At the end of the incubation period, each tube 1-11 was plated and the plates were incubated at 37° C. for 24 hours. At the end of the incubation period, the plates were removed and the colonies on each plate were counted and recorded.
The number of colonies remaining after treatment was determined for serial dilutions of 3 different organic biocides alone and in combination with copper-containing glass particles. Example 1A was treated with serial dilutions of Nuosept® 95 Preservative, which contains a mixture of 5-hydroxymethyl-1-aza-3,7-dioxabicyclo-(3.3.0) octane, 5-hydroxymethoxymethyl-1-aza-3,7-dioxabicyclo-(3.3.0) octane, and 5-hydroxypoly(methyleneoxy)methyl-1-aza-3,7-dioxabicyclo-(3.3.0) octane. Examples 1B and 1C were treated with serial dilutions of a 50:50 mixture and a 25:75 mixture, respectively, of Nuosept® 95 Preservative and copper-containing glass particles. Example 2A was treated with serial dilutions of benzisothiazolinone (BIT). Examples 2B and 2C were treated with serial dilutions of a 50:50 mixture and a 25:75 mixture, respectively, of BIT and copper-containing glass particles. Example 3A was treated with serial dilutions of Bronopol. Examples 3B and 3C were treated with serial dilutions of a 50:50 mixture and a 25:75 mixture, respectively, of Bronopol and copper-containing glass particles. Examples 4A and 4B were duplicate samples treated with serial dilutions of the copper-containing glass particles.
For each Example 1A-C, 2A-C, 3A-C, and 4A-B, 1000 μL of the dispersion of interest, the stock organic co-biocide dispersion, the stock copper-containing glass particle dispersion, or the indicated ratio of each dispersion, was added to a microcentrifuge tube (referred to as “tube 1”). 500 μL of the dispersion from tube 1 was diluted with 500 μL of thickened Letheen Broth (“tube 2”). Serial dilutions with thickened Letheen Broth were prepared up to tube 10. Tube 11 contained 500 μL of thickened Letheen Broth as a “broth blank.” 50 μL of P. aeruginosa was transferred directly from culture into each of tubes 1-11 and the tubes were incubated at 37° C. for 24 hours. At the end of the incubation period, each tube 1-11 was plated and the plates were incubated 37° C. for 24 hours. […]

Where [1] appears, read: Biocide Conc. 3.91 ppm (tube 10).
The mark [2] stands for this setting: Biocide Conc. 7.81 ppm (tube 9).
Where [3] appears, read: Biocide Conc. 15.63 ppm (tube 8).
[4] abbreviates: Biocide Conc. 31.25 ppm (tube 7).
Setting [5] is: Biocide Conc. 62.5 ppm (tube 6).
Where [6] appears, read: Biocide Conc. 1000 ppm (tube 2).
[7] abbreviates: Biocide Conc. 2000 ppm (tube 1).

The values below come from US20240148002A1, “BIOCIDAL COMPOSITIONS CONTAINING COPPER AND A CO-BIOCIDE” (CORNING INCORPORATED, priority 2021, published 2024).

On to `O=[N+]([O-])C(Br)(CO)CO` [Ex. 3A, Bronopol], for which the “MBC observation (contamination grade)” value is “+++” under setting [1]; “+++” under setting [2]; “−” under setting [3]; “−” under setting [4]; “−” under setting [5]; “−” (Biocide Conc. 125 ppm (tube 5)). Also, the “MBC observation (contamination grade)” value (Biocide Conc. 250 ppm (tube 4)) was “−”, the “MBC observation (contamination grade)” value (Biocide Conc. 500 ppm (tube 3)) is listed as “−”, the “MBC observation (contamination grade)” value under setting [6] is reported as “−” and the “MBC observation (contamination grade)” value under setting [7] is given as “−”. The colony count result is, setting by setting: under setting [1], “(>1000) colonies”; under setting [2], “(>1000) colonies”; under setting [3], 0 colonies; under setting [4], 0 colonies; under setting [5], 0 colonies; (Biocide Conc. 125 ppm (tube 5)) 0 colonies. Besides, the colony count runs as follows: (Biocide Conc. 250 ppm (tube 4)) 0 colonies; (Biocide Conc. 500 ppm (tube 3)) 0 colonies; under setting [6], 0 colonies; under setting [7], 0 colonies.

As to `O=c1[nH]sc2ccccc12` [Ex. 2A, benzisothiazolinone], the “MBC observation (contamination grade)” value is on record as “+++” under setting [1]; “+++” under setting [2]; “+++” under setting [3]; “++ (light contamination was observed (>100 colonies))” under setting [4]; “+ (a trace of contamination was observed (<10 colonies))” under setting [5]; “−” (Biocide Conc. 125 ppm (tube 5)). Besides, the “MBC observation (contamination grade)” value is recorded as “−” (Biocide Conc. 250 ppm (tube 4)), “−” (Biocide Conc. 500 ppm (tube 3)), “−” under setting [6] and “−” under setting [7]. For the same compound, the colony count entry was “(>1000) colonies” under setting [1]; “(>1000) colonies” under setting [2]; “(>1000) colonies” under setting [3]; 513 colonies under setting [4]; 35 colonies under setting [5]; 0 colonies (Biocide Conc. 125 ppm (tube 5)). Further, the colony count came out at 0 colonies (Biocide Conc. 250 ppm (tube 4)), 0 colonies (Biocide Conc. 500 ppm (tube 3)), 0 colonies under setting [6] and 0 colonies under setting [7].
